Strand notation (5' to 3'): a small letter for the sugar, then the base; units joined by * are phosphorothioate-linked, units joined directly phosphodiester-linked; [ ] holds rarer units or linkages, { } end groups; capitals alone tell only the bases. e = 2'-O-(2-methoxyethyl) (MOE); [5mC] = 5-methylcytosine; d = 2'-deoxy (DNA)
The substances below were run on human PKK mRNA (assay: Antisense inhibition of human PKK mRNA in HepaRG cells, 5,000 nM (Example 2)). Settings: HepaRG cells, electroporation with 5,000 nM antisense oligonucleotide, approximately 24 hours, PKK mRNA by RT-PCR (RTS3454), relative to untreated control cells; Table 6 experiment.
Type: cell-based
Procedure: Additional antisense oligonucleotides were designed targeting a PKK nucleic acid and were tested for their effects on PKK mRNA in vitro.
The chimeric antisense oligonucleotides in the tables below were designed as 5-10-5 MOE gapmers, 4-9-4 MOE gapmers, 4-10-4 MOE gapmers, 4-10-3 MOE gapmers, 3-10-4 MOE gapmers, or 3-10-3 MOE gapmers. The 5-10-5 MOE gapmers are 20 nucleosides in length, wherein the central gap segment comprises of ten 2′-deoxynucleosides and is flanked by wing segments on the 5′ direction and the 3′ direction comprising five nucleosides each. The 4-9-4 MOE gapmers are 17 nucleosides in length, wherein the central gap segment comprises of nine 2′-deoxynucleosides and is flanked by wing segments on the 5′ direction and the 3′ direction comprising four nucleosides each. The 4-10-4 MOE gapmers are 18 nucleosides in length, wherein the central gap segment comprises of ten 2′-deoxynucleosides and is flanked by wing segments on the 5′ direction and the 3′ direction comprising four nucleosides each. The 4-10-3 MOE gapmers are 17 nucleosides in length, wherein the central gap segment comprises of ten 2′-deoxynucleosides and is flanked by wing segments on the 5′ direction and the 3′ direction comprising four and three nucleosides respectively. The 3-10-4 MOE gapmers are 17 nucleosides in length, wherein the central gap segment comprises often 2′-deoxynucleosides and is flanked by wing segments on the 5′ direction and the 3′ direction comprising three and four nucleosides respectively. The 3-10-3 MOE gapmers are 16 nucleosides in length, wherein the central gap segment comprises of ten 2′-deoxynucleosides and is flanked by wing segments on the 5′ direction and the 3′ direction comprising three nucleosides each. Each nucleoside in the 5′ wing segment and each nucleoside in the 3′ wing segment has a 2′-O-methoxyethyl modification. The internucleoside linkages throughout each gapmer are phosphorothioate linkages. All cytosine residues throughout each gapmer are 5-methylcytosines. “Start site” indicates the 5′-most nucleoside to which the gapmer is targeted in the human gene sequence. “Stop site” indicates the 3′-most nucleoside to which the gapmer is targeted in the human gene sequence.
Cultured HepaRG™ cells at a density of 20,000 cells per well were transfected using electroporation with 5,000 nM antisense oligonucleotide. After a treatment period of approximately 24 hours, RNA was isolated from the cells and PKK mRNA levels were measured by quantitative real-time PCR. Human primer probe set RTS3454 was used to measure mRNA levels. PKK mRNA levels were adjusted according to total RNA content, as measured by RIBOGREEN®. The antisense oligonucleotides were tested in a series of experiments that had similar culture conditions. Results are presented as percent inhibition of PKK, relative to untreated control cells.
With “546199 (antisense eT*eG*eG*e[5mC]*eA*dT*dT*d[5mC]*dT*dT*d[5mC]*dA*dA*d[5mC]*dA*e[5mC]*eT*eG*e[5mC]*eT) [compound 546199]” the “% inhibition” value was 97%.
With “546200 (antisense eA*eA*eA*eA*e[5mC]*dT*dG*dG*d[5mC]*dA*dG*d[5mC]*dG*dA*dA*eT*eG*eT*eT*eA) [compound 546200]” the “% inhibition” value was 91%.
With “546203 (antisense eA*eA*eT*eT*eG*dT*dT*d[5mC]*d[5mC]*dG*dG*dT*dA*d[5mC]*dT*e[5mC]*eT*eG*e[5mC]*e[5mC]) [compound 546203]” the “% inhibition” value was 76%.
In the case of “546204 (antisense eA*eA*eT*eA*eG*dG*d[5mC]*dA*dA*dT*dT*dG*dT*dT*d[5mC]*e[5mC]*eG*eG*eT*eA) [compound 546204]”, the “% inhibition” value is reported as 91%.
“546205 (antisense eG*eT*eA*e[5mC]*eT*dT*dT*dA*dA*dT*dA*dG*dG*d[5mC]*dA*eA*eT*eT*eG*eT) [compound 546205]” was tested, and the “% inhibition” value was 83%.
With “546209 (antisense eG*e[5mC]*eT*eT*e[5mC]*dA*dG*dT*dG*dA*dG*dA*dA*dT*d[5mC]*e[5mC]*eA*eG*eA*eT) [compound 546209]” the “% inhibition” value was 73%.
“546210 (antisense e[5mC]*e[5mC]*eA*eA*eT*dT*dT*d[5mC]*dT*dG*dA*dA*dA*dG*dG*eG*e[5mC]*eA*e[5mC]*eA) [compound 546210]” was tested, and the “% inhibition” value was 79%.
In the case of “546211 (antisense eG*eG*e[5mC]*eA*eA*d[5mC]*d[5mC]*dA*dA*dT*dT*dT*d[5mC]*dT*dG*eA*eA*eA*eG*eG) [compound 546211]”, the “% inhibition” value is reported as 42%.
In the case of “546212 (antisense eA*eG*eA*eT*eG*d[5mC]*dT*dG*dG*dA*dA*dG*dA*dT*dG*eT*eT*e[5mC]*eA*eT) [compound 546212]”, the “% inhibition” value is reported as 48%.
With “546213 (antisense e[5mC]*e[5mC]*e[5mC]*eT*eG*dG*d[5mC]*dA*dA*d[5mC]*dA*dT*d[5mC]*d[5mC]*dA*e[5mC]*eA*eT*e[5mC]*eT) [compound 546213]” the “% inhibition” value was 82%.

Same assay, conditions: Table 7; HepaRG cells, electroporation with 5,000 nM antisense oligonucleotide, approx. 24 hours; PKK mRNA by RT-PCR (RTS3454), relative to untreated control cells
“546217 (antisense e[5mC]*eA*e[5mC]*eA*eA*dA*dA*dG*d[5mC]*dA*dT*d[5mC]*dT*dG*dG*eA*eG*eT*eG*eA) [compound 546217]” was tested, and the “% inhibition” value was 83%.
In the case of “546218 (antisense eT*eG*eG*eT*e[5mC]*d[5mC]*dG*dA*d[5mC]*dA*d[5mC]*dA*d[5mC]*dA*dA*eA*eA*eG*e[5mC]*eA) [compound 546218]”, the “% inhibition” value is reported as 71%.
“546220 (antisense eT*eA*eG*eG*eT*dG*d[5mC]*dA*dG*dA*dT*dG*dG*dT*d[5mC]*e[5mC]*eG*eA*e[5mC]*eA) [compound 546220]” was tested, and the “% inhibition” value was 71%.
In the case of “546222 (antisense eG*eG*eG*eT*eG*dA*dT*dA*dG*dG*dT*dG*d[5mC]*dA*dG*eA*eT*eG*eG*eT) [compound 546222]”, the “% inhibition” value is reported as 12%.
With “546224 (antisense eT*eA*eG*eA*eA*dT*dG*dT*dA*dA*dA*dG*dA*dA*dG*eA*eG*eG*e[5mC]*eA) [compound 546224]” the “% inhibition” value was 65%.
“546226 (antisense e[5mC]*e[5mC]*eA*eT*eA*d[5mC]*dA*dT*dT*dT*dG*dT*dA*dT*dA*eG*eA*eA*eT*eG) [compound 546226]” was tested, and the “% inhibition” value was 37%.
“546228 (antisense eG*eT*eG*eA*e[5mC]*dT*d[5mC]*dG*dA*dT*dT*dT*dT*d[5mC]*d[5mC]*eA*eT*eA*e[5mC]*eA) [compound 546228]” was tested, and the “% inhibition” value was 60%.
With “546229 (antisense eA*e[5mC]*eA*eT*eT*dT*d[5mC]*dT*dT*dT*dG*dT*dG*dA*d[5mC]*eT*e[5mC]*eG*eA*eT) [compound 546229]” the “% inhibition” value was 19%.
In the case of “546230 (antisense eG*eT*eG*eT*eG*d[5mC]*d[5mC]*dA*d[5mC]*dT*dT*dT*d[5mC]*dA*dG*eA*eT*eG*eT*eT) [compound 546230]”, the “% inhibition” value is reported as 70%.
For “546231 (e[5mC]*eT*eT*eG*eG*dT*dG*dT*dG*d[5mC]*d[5mC]*dA*d[5mC]*dT*dT*eT*e[5mC]*eA*eG*eA; antisense) [compound 546231]”, the “% inhibition” value was 79%.

— US11840686B2, “Modulation of prekallikrein (PKK) expression” (Ionis Pharmaceuticals, Inc., priority 2013, dated 2023)
